Source: patent publication US10519152B2, “Compounds and their use in treating cancer” (AstraZeneca AB, priority 2017, dated 2019)
pIC50: −log10 of the molar value.

The molecules below were run against T1, recombinant human Estrogen Receptor alpha ligand binding domain, residues 307-554 (ER alpha-LBD (GST)) (Homo sapiens, UniProt P03372) (assay: ERα binding assay (LanthaScreen TR-FRET competition)). Conditions: TR-FRET competition with Fluormone ES2 tracer, 4 hours at room temperature; single experiment or average of two or more.
T1 construct: made in house
T1 sequence (P03372 307-554): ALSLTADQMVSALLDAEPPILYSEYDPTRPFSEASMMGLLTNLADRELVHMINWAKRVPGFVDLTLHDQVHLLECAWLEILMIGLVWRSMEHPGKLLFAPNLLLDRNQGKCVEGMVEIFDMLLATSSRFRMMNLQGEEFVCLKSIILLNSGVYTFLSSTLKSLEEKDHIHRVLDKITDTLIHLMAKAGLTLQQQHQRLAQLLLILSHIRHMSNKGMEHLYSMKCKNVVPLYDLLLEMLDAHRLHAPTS

Row | Compound | pIC50
1 | Cc1ncsc1-c1ccc(CNC(=O)[C@@H]2C[C@@H](O)CN2C(=O)[C@@H](NC(=O)COCCOCCNC(=O)/C=C/c2cc(F)c([C@@H]3c4[nH]c5ccccc5c4C[C@@H](C)N3CC(C)(C)F)c(F)c2)C(C)(C)C)cc1 [Example 58, (2S,4R)-1-((S,E)-2-(tert-butyl)-15-(3,5-difluoro-4-((1R,3R)-2-(2-fluoro-2-methylpropyl)-3-methyl-2,3,4,9-tetrahydro-1H-pyrido[3,4-b]indol-1-yl)phenyl)-4,13-dioxo-6,9-dioxa-3,124-diazapentadec-4-enoyl)-4-hydroxy-N-(4-(4-methylthiazol-5-yl)benzyl)pyrrolidine-2-carboxamide, Trifluoroacetic Acid] | 9.05
2 | Cc1ncsc1-c1ccc(CNC(=O)[C@@H]2C[C@@H](O)CN2C(=O)[C@@H](NC(=O)CCCCNC(=O)/C=C/c2cc(F)c([C@@H]3c4[nH]c5ccccc5c4C[C@@H](C)N3CC(C)(C)F)c(F)c2)C(C)(C)C)cc1 [Example 60, (2S,4R)-1-((S)-2-(5-((E)-3-(3,5-difluoro-4-((1R,3R)-2-(2-fluoro-2-methylpropyl)-3-methyl-2,3,4,9-tetrahydro-1H-pyrido[3,4-b]indol-1-yl)phenyl)acrylamido)pentanamido)-3,3-dimethylbutanoyl)-4-hydroxy-N-(4-(4-methylthiazol-5-yl)benzyl)pyrrolidine-2-carboxamide, Trifluoroacetic Acid] | 9.15
3 | Cc1ncsc1-c1ccc(CNC(=O)[C@@H]2C[C@@H](O)CN2C(=O)[C@@H](NC(=O)COc2ccc(OCCNC(=O)/C=C/c3cc(F)c([C@@H]4c5[nH]c6ccccc6c5C[C@@H](C)N4CC(C)(C)F)c(F)c3)cc2)C(C)(C)C)cc1 [Example 61, (2S,4R)-1-((S)-2-(2-(4-(2-((E)-3-(3,5-difluoro-4-((1R,3R)-2-(2-fluoro-2-methylpropyl)-3-methyl-2,3,4,9-tetrahydro-1H-pyrido[3,4-b]indol-1-yl)phenyl)acrylamido)ethoxy)phenoxy)acetamido)-3,3-dimethylbutanoyl)-4-hydroxy-N-(4-(4-methylthiazol-5-yl)benzyl)pyrrolidine-2-carboxamide, Trifluoroacetic Acid] | 9.00
4 | Cc1ncsc1-c1ccc(CNC(=O)[C@@H]2C[C@@H](O)CN2C(=O)[C@@H](NC(=O)COCCNC(=O)/C=C/c2cc(F)c([C@@H]3c4[nH]c5ccccc5c4C[C@@H](C)N3CC(C)(C)F)c(F)c2)C(C)(C)C)cc1 [Example 62, (2S,4R)-1-((S)-2-(2-(2-((E)-3-(3,5-difluoro-4-((1R,3R)-2-(2-fluoro-2-methylpropyl)-3-methyl-2,3,4,9-tetrahydro-1H-pyrido[3,4-b]indol-1-yl)phenyl)acrylamido)ethoxy)acetamido)-3,3-dimethylbutanoyl)-4-hydroxy-N-(4-(4-methylthiazol-5-yl)benzyl)pyrrolidine-2-carboxamide, Trifluoroacetic Acid] | 9.30
5 | Cc1ncsc1-c1ccc(CNC(=O)[C@@H]2C[C@@H](O)CN2C(=O)[C@@H](NC(=O)COCCOCCOCCNC(=O)/C=C/c2cc(F)c([C@@H]3c4[nH]c5ccccc5c4C[C@@H](C)N3CC(C)(C)F)c(F)c2)C(C)(C)C)cc1 [Example 63, (2S,4R)-1-((S,E)-2-(tert-butyl)-18-(3,5-difluoro-4-((1R,3R)-2-(2-fluoro-2-methylpropyl)-3-methyl-2,3,4,9-tetrahydro-1H-pyrido[3,4-b]indol-1-yl)phenyl)-4,16-dioxo-6,9,12-trioxa-3,15-diazaoctadec-17-enoyl)-4-hydroxy-N-(4-(4-methylthiazol-5-yl)benzyl)pyrrolidine-2-carboxamide, Trifluoroacetic Acid] | 9.00
6 | Cc1ncsc1-c1ccc(CNC(=O)[C@@H]2C[C@@H](O)CN2C(=O)[C@@H](NC(=O)c2cnn(CCOCCNC(=O)/C=C/c3cc(F)c([C@@H]4c5[nH]c6ccccc6c5C[C@@H](C)N4CC(C)(C)F)c(F)c3)c2)C(C)(C)C)cc1 [Example 64, 1-(2-(2-((E)-3-(3,5-difluoro-4-((1R,3R)-2-(2-fluoro-2-methylpropyl)-3-methyl-2,3,4,9-tetrahydro-1H-pyrido[3,4-b]indol-1-yl)phenyl)acrylamido)ethoxy)ethyl)-N—((S)-1-((2S,4R)-4-hydroxy-2-((4-(4-methylthiazol-5-yl)benzyl)carbamoyl)pyrrolidin-5-yl)-3,3-dimethyl-1-oxobutan-2-yl)-1H-pyrazole-4-carboxamide, Trifluoroacetic Acid] | 9.40
7 | Cc1ncsc1-c1ccc(CNC(=O)[C@@H]2C[C@@H](O)CN2C(=O)[C@@H](NC(=O)Cc2ccc(OCCOCCNC(=O)/C=C/c3cc(F)c([C@@H]4c5[nH]c6ccccc6c5C[C@@H](C)N4CC(C)(C)F)c(F)c3)cc2)C(C)(C)C)cc1 [Example 66, (2S,4R)-1-((S)-2-(2-(4-(2-(2-((E)-3-(3,5-difluoro-4-((1R,3R)-2-(2-fluoro-2-methylpropyl)-3-methyl-2,3,4,9-tetrahydro-1H-pyrido[3,4-b]indol-1-yl)phenyl)acrylamido)ethoxy)ethoxy)phenyl)acetamido)-3,3-dimethylbutanoyl)-4-hydroxy-N-(4-(4-methylthiazol-5-yl)benzyl)pyrrolidine-2-carboxamide, Trifluoroacetic Acid] | 8.92
8 | Cc1ncsc1-c1ccc(CNC(=O)[C@@H]2C[C@@H](O)CN2C(=O)[C@@H](NC(=O)c2ccc(N3CCN(CCNC(=O)/C=C/c4cc(F)c([C@@H]5c6[nH]c7ccccc7c6C[C@@H](C)N5CC(C)(C)F)c(F)c4)CC3)cc2)C(C)(C)C)cc1 [Example 67, (2S,4R)-1-((S)-2-(4-(4-(2-((E)-3-(3,5-difluoro-4-((1R,3R)-2-(2-fluoro-2-methylpropyl)-3-methyl-2,3,4,9-tetrahydro-1H-pyrido[3,4-b]indol-1-yl)phenyl)acrylamido)ethyl)piperazin-1-yl)benzamido)-3,3-dimethylbutanoyl)-4-hydroxy-N-(4-(4-methylthiazol-5-yl)benzyl)pyrrolidine-2-carboxamide, Trifluoroacetic Acid] | 8.96
9 | Cc1ncsc1-c1ccc(CNC(=O)[C@@H]2C[C@@H](O)CN2C(=O)[C@@H](NC(=O)COCCOCCOCCOCC(=O)Nc2cc(F)c([C@@H]3c4[nH]c5ccccc5c4C[C@@H](C)N3CC(C)(C)F)c(F)c2)C(C)(C)C)cc1 [Example 68, N1-(3,5-difluoro-4-((1R,3R)-2-(2-fluoro-2-methylpropyl)-3-methyl-2,3,4,9-tetrahydro-1H-pyrido[3,4-b]indol-1-yl)phenyl)-N14-((S)-1-((2S,4R)-4-hydroxy-2-((4-(4-methylthiazol-5-yl)benzyl)carbamoyl)pyrrolidin-1-yl)-3,3-dimethyl-1-oxobutan-2-yl)-3,6,9,12-tetraoxatetradecanediamide] | 9.00
10 | Cc1ncsc1-c1ccc(CNC(=O)[C@@H]2C[C@@H](O)CN2C(=O)[C@@H](NC(=O)COCCOCCOCCOc2cc(F)c([C@@H]3c4[nH]c5ccccc5c4C[C@@H](C)N3CC(F)(F)CO)c(F)c2)C(C)(C)C)cc1 [Example 71, (2S,4R)-1-((S)-2-(tert-Butyl)-14-(4-((1R,3R)-2-(2,2-difluoro-3-hydroxypropyl)-3-methyl-2,3,4,9-tetrahydro-1H-pyrido[3,4-b]indol-1-yl)-3,5-difluorophenoxy)-4-oxo-6,9,12-trioxa-3-azatetradecanoyl)-4-hydroxy-N-(4-(4-methylthiazol-5-yl)benzyl)pyrrolidine-2-carboxamide] | 8.89
11 | Cc1ncsc1-c1ccc(CNC(=O)[C@@H]2C[C@@H](O)CN2C(=O)[C@@H](NC(=O)COCc2cccc(CCCOc3cc(F)c([C@@H]4c5[nH]c6ccccc6c5C[C@@H](C)N4CC(C)(C)F)c(F)c3)c2)C(C)(C)C)cc1 [Example 74, (2S,4R)-1-((S)-2-(2-((3-(3-(3,5-Difluoro-4-((1R,3R)-2-(2-fluoro-2-methylpropyl)-3-methyl-2,3,4,9-tetrahydro-1H-pyrido[3,4-b]indol-1-yl)phenoxy)propyl)benzyl)oxy)acetamido)-3,3-dimethylbutanoyl)-4-hydroxy-N-(4-(4-methylthiazol-5-yl)benzyl)pyrrolidine-2-carboxamide] | 9.10
12 | Cc1ncsc1-c1ccc(CNC(=O)[C@@H]2C[C@@H](O)CN2C(=O)[C@@H](NC(=O)COCCOCCOCCOc2cc(F)c([C@@H]3c4[nH]c5ccccc5c4C[C@@H](C)N3CC3(F)CC3)c(F)c2)C(C)(C)C)cc1 [Example 77, (2S,4R)-1-((S)-2-(tert-Butyl)-14-(3,5-difluoro-4-((1R,3R)-2-((1-fluorocyclopropyl)methyl)-3-methyl-2,3,4,9-tetrahydro-1H-pyrido[3,4-b]indol-1-yl)phenoxy)-4-oxo-6,9,12-trioxa-3-azatetradecanoyl)-4-hydroxy-N-(4-(4-methylthiazol-5-yl)benzyl)pyrrolidine-2-carboxamide] | 8.59
13 | Cc1ncsc1-c1ccc(CNC(=O)[C@@H]2C[C@@H](O)CN2C(=O)[C@@H](NC(=O)COCCCCCCCOc2cc(F)c([C@@H]3c4[nH]c5ccccc5c4C[C@@H](C)N3CC(F)(F)CO)c(F)c2)C(C)(C)C)cc1 [Example 78, (2S,4R)-1-((S)-2-(2-((7-(4-((1R,3R)-2-(2,2-Difluoro-3-hydroxypropyl)-3-methyl-2,3,4,9-tetrahydro-1H-pyrido[3,4-b]indol-1-yl)-3,5-difluorophenoxy)heptyl)oxy)acetamido)-3,3-dimethylbutanoyl)-4-hydroxy-N-(4-(4-methylthiazol-5-yl)benzyl)pyrrolidine-2-carboxamide] | 9.30
14 | Cc1ncsc1-c1ccc(CNC(=O)[C@@H]2C[C@@H](O)CN2C(=O)[C@@H](NC(=O)COCCCCCOc2cc(F)c([C@@H]3c4[nH]c5ccccc5c4C[C@@H](C)N3CC3(F)CC3)c(F)c2)C(C)(C)C)cc1 [Example 79, (2S,4R)-1-((S)-2-(2-((5-(3,5-difluoro-4-((1R,3R)-2-((1-fluorocyclopropyl)methyl)-3-methyl-2,3,4,9-tetrahydro-1H-pyrido[3,4-b]indol-1-yl)phenoxy)pentyl)oxy)acetamido)-3,3-dimethylbutanoyl)-4-hydroxy-N-(4-(4-methylthiazol-5-yl)benzyl)pyrrolidine-2-carboxamide] | 9.05
